Results taken from patent US11420958B2, “Aryl and heteroaryl substituted indole compounds” (BRISTOL-MYERS SQUIBB COMPANY, priority 2017, dated 2022).

Legend:
Format in all cases: cell-based
[1] = target: human TLR9 (Homo sapiens (Human), UniProt Q9NR96); experiment: TLR9 inhibition reporter assay (HEK-Blue, SEAP); conditions: HEK-Blue cells overexpressing human TLR9, ODN2006 5 nM stimulation
Outline: (§1)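 Percent inhibition of agonist-induced SEAP secretion was scored against DMSO-only and reference-inhibitor controls. Stimulation lasted 22 h at 37 °C following 30 min compound pre-exposure (0.05 nM–50 μM); ligands were gardiquimod 7.5 μM, R848 15.9 μM and ODN2006 5 nM for TLR7, 8 and 9.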

[2] = target: human TLR7 (Homo sapiens (Human), UniProt Q9NYK1); experiment: TLR7 inhibition reporter assay (HEK-Blue, SEAP); conditions: HEK-Blue cells overexpressing human TLR7, gardiquimod 7.5 μM stimulation
Outline: as §1

[3] = target: human TLR8 (Homo sapiens (Human), UniProt Q9NR97); experiment: TLR8 inhibition reporter assay (HEK-Blue, SEAP); conditions: HEK-Blue cells overexpressing human TLR8, R848 15.9 μM stimulation
Outline: as §1

human TLR7, sequence (Q9NYK1 27-1049): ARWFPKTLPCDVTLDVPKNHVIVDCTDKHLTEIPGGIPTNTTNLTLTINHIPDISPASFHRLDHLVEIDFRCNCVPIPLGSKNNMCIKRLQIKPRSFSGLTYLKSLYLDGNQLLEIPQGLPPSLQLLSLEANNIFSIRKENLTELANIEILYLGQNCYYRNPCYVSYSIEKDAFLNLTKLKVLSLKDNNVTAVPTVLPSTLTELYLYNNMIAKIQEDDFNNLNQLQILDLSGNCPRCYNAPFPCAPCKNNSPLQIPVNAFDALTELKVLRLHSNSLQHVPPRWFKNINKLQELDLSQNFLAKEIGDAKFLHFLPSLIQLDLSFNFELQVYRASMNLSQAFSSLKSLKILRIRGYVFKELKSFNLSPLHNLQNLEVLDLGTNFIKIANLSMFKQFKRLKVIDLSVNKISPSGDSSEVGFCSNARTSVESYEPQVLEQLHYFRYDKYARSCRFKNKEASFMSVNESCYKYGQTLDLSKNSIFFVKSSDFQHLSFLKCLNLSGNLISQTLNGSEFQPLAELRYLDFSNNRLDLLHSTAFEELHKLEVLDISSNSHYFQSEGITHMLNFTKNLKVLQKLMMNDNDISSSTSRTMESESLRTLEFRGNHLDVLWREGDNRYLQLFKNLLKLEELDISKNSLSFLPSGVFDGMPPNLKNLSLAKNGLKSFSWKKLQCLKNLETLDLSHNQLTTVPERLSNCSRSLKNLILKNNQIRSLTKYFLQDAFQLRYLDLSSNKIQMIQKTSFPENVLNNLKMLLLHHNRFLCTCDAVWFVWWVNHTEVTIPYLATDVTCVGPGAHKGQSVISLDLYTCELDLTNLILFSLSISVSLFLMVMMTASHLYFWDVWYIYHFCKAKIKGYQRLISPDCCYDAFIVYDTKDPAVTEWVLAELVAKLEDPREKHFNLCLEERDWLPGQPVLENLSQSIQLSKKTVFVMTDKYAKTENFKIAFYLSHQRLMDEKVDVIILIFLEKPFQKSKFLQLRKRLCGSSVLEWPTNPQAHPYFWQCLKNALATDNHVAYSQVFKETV
human TLR8, sequence (Q9NR97 27-1041): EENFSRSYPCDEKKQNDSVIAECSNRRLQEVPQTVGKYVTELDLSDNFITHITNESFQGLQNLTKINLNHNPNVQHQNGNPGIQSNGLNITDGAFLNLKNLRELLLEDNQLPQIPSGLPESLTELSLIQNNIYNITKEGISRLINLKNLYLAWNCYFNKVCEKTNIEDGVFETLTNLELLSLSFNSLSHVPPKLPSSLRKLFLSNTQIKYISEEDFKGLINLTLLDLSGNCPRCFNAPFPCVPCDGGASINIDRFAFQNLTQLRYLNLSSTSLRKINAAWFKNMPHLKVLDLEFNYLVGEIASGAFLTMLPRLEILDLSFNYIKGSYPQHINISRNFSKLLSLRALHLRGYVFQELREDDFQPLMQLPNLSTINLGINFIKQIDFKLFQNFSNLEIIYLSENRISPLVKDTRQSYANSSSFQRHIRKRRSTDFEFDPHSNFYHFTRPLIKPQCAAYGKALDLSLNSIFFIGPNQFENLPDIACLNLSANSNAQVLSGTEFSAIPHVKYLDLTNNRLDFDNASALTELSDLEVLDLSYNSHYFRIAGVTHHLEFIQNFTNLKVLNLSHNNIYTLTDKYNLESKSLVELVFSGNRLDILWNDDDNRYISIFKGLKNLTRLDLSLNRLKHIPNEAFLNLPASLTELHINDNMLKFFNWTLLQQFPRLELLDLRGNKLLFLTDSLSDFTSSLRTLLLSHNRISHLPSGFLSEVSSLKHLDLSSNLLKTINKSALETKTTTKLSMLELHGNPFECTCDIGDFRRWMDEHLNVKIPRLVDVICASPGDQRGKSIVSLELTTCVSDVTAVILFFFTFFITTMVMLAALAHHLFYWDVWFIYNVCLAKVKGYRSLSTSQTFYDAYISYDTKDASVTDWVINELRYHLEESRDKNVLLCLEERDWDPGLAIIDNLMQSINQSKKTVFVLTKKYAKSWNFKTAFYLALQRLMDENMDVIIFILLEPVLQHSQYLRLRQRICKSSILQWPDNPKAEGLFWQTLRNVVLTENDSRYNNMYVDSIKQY
human TLR9, sequence (Q9NR96 26-1032): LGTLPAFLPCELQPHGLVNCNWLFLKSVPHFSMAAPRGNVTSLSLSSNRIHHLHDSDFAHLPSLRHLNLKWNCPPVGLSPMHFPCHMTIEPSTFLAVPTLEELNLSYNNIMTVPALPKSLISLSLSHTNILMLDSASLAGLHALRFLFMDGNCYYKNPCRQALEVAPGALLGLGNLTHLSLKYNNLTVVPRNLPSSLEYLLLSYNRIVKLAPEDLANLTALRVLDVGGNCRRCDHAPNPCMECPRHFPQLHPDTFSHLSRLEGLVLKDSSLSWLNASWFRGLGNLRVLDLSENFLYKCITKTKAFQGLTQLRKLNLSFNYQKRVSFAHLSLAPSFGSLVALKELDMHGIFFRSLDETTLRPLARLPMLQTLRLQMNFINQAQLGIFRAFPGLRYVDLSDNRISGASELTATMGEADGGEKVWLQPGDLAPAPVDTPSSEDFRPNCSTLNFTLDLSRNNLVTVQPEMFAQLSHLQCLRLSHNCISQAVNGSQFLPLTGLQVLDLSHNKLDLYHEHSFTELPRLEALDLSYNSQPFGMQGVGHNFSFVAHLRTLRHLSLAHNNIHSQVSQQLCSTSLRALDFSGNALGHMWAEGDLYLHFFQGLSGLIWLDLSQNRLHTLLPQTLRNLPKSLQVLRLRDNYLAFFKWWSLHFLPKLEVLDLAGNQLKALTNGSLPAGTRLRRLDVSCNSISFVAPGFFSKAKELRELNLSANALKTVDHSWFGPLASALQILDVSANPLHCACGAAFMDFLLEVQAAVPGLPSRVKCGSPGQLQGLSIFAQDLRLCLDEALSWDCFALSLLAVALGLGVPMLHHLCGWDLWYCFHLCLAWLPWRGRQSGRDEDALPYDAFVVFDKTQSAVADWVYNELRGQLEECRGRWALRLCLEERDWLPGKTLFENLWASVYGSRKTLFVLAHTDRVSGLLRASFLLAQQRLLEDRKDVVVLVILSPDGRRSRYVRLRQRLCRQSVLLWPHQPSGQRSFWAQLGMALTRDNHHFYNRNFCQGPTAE

| SMILES | IC50 [1] [µM] | IC50 [2] [µM] | IC50 [3] [µM] |
| --- | --- | --- | --- |
| CC(C)c1c(-c2ccnc3[nH]ncc23)[nH]c2ccc(-c3nnc(C4CCNCC4)o3)cc12 [Example 102, 2-(3-isopropyl-2-(1H-pyrazolo[3,4-b]pyridin-4-yl)-1H-indol-5-yl)-5-(piperidin-4-yl)-1,3,4-oxadiazole] | 0.611 | 0.125 | 0.011 |
| Cc1cc(-c2[nH]c3ccc(-c4ccc(NC(=O)C(F)(F)F)nc4)cc3c2C(C)C)ccn1 [Example 295, 2,2,2-trifluoro-N-(5-(3-isopropyl-2-(2-methylpyridin-4-yl)-1H-indol-5-yl)pyridin-2-yl)acetamide] | 17.9 | 0.011 | 0.0027 |
| CC(C)c1c(-c2ccnc3[nH]ncc23)[nH]c2ccc(-c3nnc(CNCC#N)o3)cc12 [Example 150, 2-(((5-(3-isopropyl-2-(1H-pyrazolo[3,4-b]pyridin-4-yl)-1H-indol-5-yl)-1,3,4-oxadiazol-2-yl)methyl)amino)acetonitrile] | > 50 | 2.24 | 0.378 |
| CCc1c(-c2ccnc3[nH]ncc23)[nH]c2ccc(-c3ccc(N4CCN(C)CC4)cc3)cc12 [Example 384, 4-(3-ethyl-5-(4-(4-methylpiperazin-1-yl)phenyl)-1H-indol-2-yl)-1H-pyrazolo[3,4-b]pyridine] | 1.95 | 0.145 | 0.012 |
| COc1ccc(-c2[nH]c3ccc(-c4nnc(C[C@H]5CCCCN5)o4)cc3c2C(C)C)cc1OC [Example 54, (R)-2-(2-(3,4-dimethoxyphenyl)-3-isopropyl-1H-indol-5-yl)-5-(piperidin-2-ylmethyl)-1,3,4-oxadiazole] | 0.706 | 0.075 | 0.0039 |
| Cc1cc(-c2[nH]c3ccc(-c4nnc(C5CCCNC5)[nH]4)cc3c2C(C)C)ccn1 (stereo not drawn) [Example 178, 3-isopropyl-2-(2-methylpyridin-4-yl)-5-(5-(piperidin-3-yl)-4H-1,2,4-triazol-3-yl)-1H-indole] | 3.99 | 0.22 | 0.012 |
| Cc1cc(-c2[nH]c3ccc(-c4ccc(N5CCC(N(C)C)CC5)nc4)cc3c2C(C)C)cc(C)n1 [Example 337, 1-(5-(2-(2,6-dimethylpyridin-4-yl)-3-isopropyl-1H-indol-5-yl)pyridin-2-yl)-N,N-dimethylpiperidin-4-amine] | 0.22 | 0.0067 | 0.0049 |
| Cc1cc(-c2[nH]c3ccc(-c4ccc(NC(=O)CN(C)C)nc4)cc3c2C(C)C)cc(C)n1 [Example 238, 2-(dimethylamino)-N-(5-(2-(2,6-dimethylpyridin-4-yl)-3-isopropyl-1H-indol-5-yl)pyridin-2-yl)acetamide] | 0.451 | 0.0097 | 0.0027 |
| Cc1cc(-c2[nH]c3ccc(-c4nnc(C(=O)NCCN(C)C)o4)cc3c2C(C)C)cc(C)n1 [Example 223, N-(2-(dimethylamino)ethyl)-5-(2-(2,6-dimethylpyridin-4-yl)-3-isopropyl-1H-indol-5-yl)-1,3,4-oxadiazole-2-carboxamide] | 0.138 | 0.0066 | 0.001 |
| Cc1cc(-c2[nH]c3ccc(-c4nnc([C@@H]5CCCN5)o4)cc3c2C(C)C)ccn1 [Example 261, (S)-2-(3-isopropyl-2-(2-methylpyridin-4-yl)-1H-indol-5-yl)-5-(pyrrolidin-2-yl)-1,3,4-oxadiazole] | 6.28 | 0.162 | 0.0045 |
| COc1ccc(-c2[nH]c3ccc(-c4nnc(C5CCNC5)o4)cc3c2C(C)C)cc1OC (stereo not drawn) [Example 48, 2-(2-(3,4-dimethoxyphenyl)-3-isopropyl-1H-indol-5-yl)-5-(pyrrolidin-3-yl)-1,3,4-oxadiazole] | 2.33 | 0.034 | 0.011 |
| CCc1c(-c2ccc(OC)c(OC)c2)[nH]c2ccc(-c3cccnc3)cc12 [Example 466, 2-(3,4-dimethoxyphenyl)-3-ethyl-5-(pyridin-3-yl)-1H-indole] | > 50 | 3.88 | 0.368 |
